Assay results: patent US20260234144A1 (TAY THERAPEUTICS LIMITED, priority 2023, published 2026)

System: R223X stop codon in the mutated luciferase gene, ADXC8 luciferase reporter cell line
Experiment: cells
Assay type: cell-based
Settings: for Emax / EC (100% of 200 uM G418 response): 24 h, ADXC8 cells, 24 hours; for Emax: read-out: Fold Over Control, maximum fold response relative to 200 μM G418; for EC (100% of 200 uM G418 response): read-out: pC100%, negative logarithm of the concentration giving the same response as 200 μM G418; for pC100% response: assayed at a concentration of 300 μM, C100% = concentration giving the same response as 200 μM G418

Row | Structure (SMILES) | Emax | EC (100% of 200 uM G418 response) | pC100% response
1 | Cc1cc(C)c2c(N)nc(NC3CC34CCNCC4)nc2n1 (stereo not drawn) [Example 640] | 0 to 100% | > 31.6 µM | –
2 | Cc1cc(C)c2c(N)nc(N[C@H]3CCNC[C@@H]3C)nc2n1 [Example 641] | 100 to 3000% | 10 to 100 µM | –
3 | Cc1cc(C)c2c(N)nc(NCC(O)CN3CCCCC3)nc2n1 (stereo not drawn) [Example 642] | 100 to 3000% | 10 to 100 µM | –
4 | CN1CCC(Nc2nc(N)c3cc(-c4cncn4C)cnc3n2)CC1 [Example 643] | 0 to 100% | > 100 µM | –
5 | CN1CCC(Nc2nc(N)c3cc(-c4cn(C)cn4)cnc3n2)CC1 [Example 644] | 0 to 100% | > 100 µM | –
6 | CN1CCC(Nc2nc(N)c3cc(-c4ncco4)cnc3n2)CC1 [Example 645] | 0 to 100% | > 100 µM | –
7 | CN1CCC(Nc2nc(N)c3cc(-c4ccn[nH]4)cnc3n2)CC1 [Example 646] | 0 to 100% | > 100 µM | –
8 | CN1CCC(Nc2nc(N)c3cc(-c4cncs4)cnc3n2)CC1 [Example 647] | 100 to 3000% | 10 to 100 µM | –
9 | CN1CCC(Nc2nc(N)c3cc(-c4ccn(C)n4)cnc3n2)CC1 [Example 648] | 0 to 100% | > 100 µM | –
10 | Cc1c2c(nc3nc(NC4CCN(Cc5ccc(C#N)cc5F)CC4)nc(N)c13)CCC2 [Example 649] | 100 to 3000% | 1 to 10 µM | –
11 | Cc1c2c(nc3nc(NC4CCN(Cc5cc(F)cc(F)c5O)CC4)nc(N)c13)CCC2 [Example 654] | 100 to 3000% | 1 to 10 µM | –
12 | CNc1nc(N[C@@H]2CNC[C@@H]2O)nc2nc3c(c(C)c12)CCC3 [Example 657] | 100 to 3000% | 1 to 10 µM | –
13 | CNc1nc(N[C@@H]2CN(C)C[C@@H]2O)nc2nc3c(c(C)c12)CCC3 [Example 658] | 100 to 3000% | 1 to 10 µM | –
14 | Cc1cc(C)c2c(N)nc(NC3CCN(Cc4cccc5cn[nH]c45)CC3)nc2n1 [Example 659] | 100 to 3000% | 0.1 to 1 µM | –
15 | Cc1cc(C)c2c(N)nc(NC3CCN(Cc4cccc5nc[nH]c45)CC3)nc2n1 [Example 660] | 100 to 3000% | 1 to 10 µM | –
16 | Cc1c2c(nc3nc(NC4CCN(Cc5cn[nH]c5)CC4)nc(N)c13)CCC2 [Example 661] | 100 to 3000% | 1 to 10 µM | –
17 | Cc1c2c(nc3nc(NC4CCN(Cc5ccn[nH]5)CC4)nc(N)c13)CCC2 [Example 662] | 100 to 3000% | 1 to 10 µM | –
18 | Cc1c2c(nc3nc(NC4CCN(Cc5cnccc5O)CC4)nc(N)c13)CCC2 [Example 663] | 100 to 3000% | 1 to 10 µM | –
19 | Cc1c2c(nc3nc(NC4CCN(Cc5cccnc5O)CC4)nc(N)c13)CCC2 [Example 664] | 0 to 100% | > 31.6 µM | –
20 | Cc1c2c(nc3nc(NC4CCN(Cc5cccc(S(N)(=O)=O)c5)CC4)nc(N)c13)CCC2 [Example 665] | 100 to 3000% | 1 to 10 µM | –
21 | CNS(=O)(=O)c1ccc(CN2CCC(Nc3nc(N)c4c(C)c5c(nc4n3)CCC5)CC2)cc1 [Example 666] | 100 to 3000% | 1 to 10 µM | –

Row | Structure (SMILES) | Emax | EC (100% of 200 uM G418 response) | pC100% response
22 | Cc1c2c(nc3nc(NC4CCN(Cc5ccc(S(N)(=O)=O)cc5)CC4)nc(N)c13)CCC2 [Example 667] | 100 to 3000% | 1 to 10 µM | –
23 | Cc1c2c(nc3nc(NC4CCN(Cc5ccc(B(O)O)cc5)CC4)nc(N)c13)CCC2 [Example 668] | 100 to 3000% | 1 to 10 µM | –
24 | Cc1c2c(nc3nc(NC4CCN(Cc5cccc(B(O)O)c5)CC4)nc(N)c13)CCC2 [Example 669] | 100 to 3000% | 1 to 10 µM | –
25 | Cc1c2c(nc3nc(NC4CCN(Cc5ccccc5B(O)O)CC4)nc(N)c13)CCC2 [Example 670] | 100 to 3000% | 0.1 to 1 µM | –
26 | Cc1c2c(nc3nc(NC4CCN(Cc5ccccc5NS(C)(=O)=O)CC4)nc(N)c13)CCC2 [Example 671] | 100 to 3000% | 1 to 10 µM | –
27 | Cc1c2c(nc3nc(NC4CCN(Cc5cccc6cc[nH]c56)CC4)nc(N)c13)CCC2 [Example 672] | 100 to 3000% | 0.01 to 0.1 µM | –
28 | Cc1c2c(nc3nc(NC4CCN(Cc5ccc(C(=O)O)cc5)CC4)nc(N)c13)CCC2 [Example 673] | 100 to 3000% | 1 to 10 µM | –
29 | Cc1c2c(nc3nc(NC4CCN(Cc5cccc(C(=O)O)c5)CC4)nc(N)c13)CCC2 [Example 674] | 0 to 100% | > 31.6 µM | –
30 | Cc1c2c(nc3nc(NC4CCN(Cc5ccccc5C(=O)O)CC4)nc(N)c13)CCC2 [Example 675] | 0 to 100% | > 31.6 µM | –
31 | Cc1nc2nc(NC3CCN(C)CC3)nc(N)c2cc1-c1cnn(C)c1 [Example 677] | 0 to 100% | > 100 µM | –
32 | Cc1nc2nc(NC3CCN(C)CC3)nc(N)c2c(C)c1-c1cnn(C)c1 [Example 678] | 0 to 100% | > 100 µM | –
33 | CN1CCC(Nc2nc(N)c3cc(-c4cnn(C)c4)cnc3n2)CC1 [Example 679] | 0 to 100% | > 100 µM | –
34 | Cc1c2c(nc3nc(NC4CCN(Cc5ccccc5O)CC4)cc(N)c13)CCC2 [Example 680] | 100 to 3000% | 0.01 to 0.1 µM | –
35 | CNc1nc(N[C@H]2CN(C)C[C@@H]2OC(=O)C(C)(C)C)nc2nc3c(c(C)c12)CCC3 [Example 681] | 100 to 3000% | 0.1 to 1 µM | –
36 | CCC(=O)O[C@H]1CN(C)C[C@@H]1Nc1nc(NC)c2c(C)c3c(nc2n1)CCC3 [Example 682] | 100 to 3000% | 0.1 to 1 µM | –
37 | CNc1nc(N[C@H]2CN(C)C[C@@H]2OC(C)=O)nc2nc3c(c(C)c12)CCC3 [Example 683, (3S,4S)-1-methyl-4-((5-methyl-4-(methylamino)-7,8-dihydro-6H-cyclopenta[5,6]pyrido[2,3-d]pyrimidin-2-yl)amino)pyrrolidin-3-yl acetate] | 100 to 3000% | 0.1 to 1 µM | –
38 | CNc1nc(N[C@H]2CN(C)C[C@@H]2OC(=O)C(C)C)nc2nc3c(c(C)c12)CCC3 [Example 684, (3S,4S)-1-methyl-4-((5-methyl-4-(methylamino)-7,8-dihydro-6H-cyclopenta[5,6]pyrido[2,3-d]pyrimidin-2-yl)amino)pyrrolidin-3-yl isobutyrate] | 100 to 3000% | 0.1 to 1 µM | –
39 | CNc1nc(N[C@H]2CN(C)C[C@@H]2OC(=O)OC(C)(C)C)nc2nc3c(c(C)c12)CCC3 [Example 685, tert-butyl ((3S,4S)-1-methyl-4-((5-methyl-4-(methylamino)-7,8-dihydro-6H-cyclopenta[5,6]pyrido[2,3-d]pyrimidin-2-yl)amino)pyrrolidin-3-yl) carbonate] | 100 to 3000% | 0.1 to 1 µM | –
40 | Nc1nc(N)c2cccnc2n1 [pyrido[2,3-d]pyrimidine-2,4-diamine, reference compound] | 0 to 100% | > 100 µM | not reached
41 | Nc1nc(N)c2nc(-c3ccccc3)c(N)nc2n1 [triamterene, reference compound] | 0 to 100% | > 100 µM | not reached
